“Also recorded” adds a separate entry of the source.
Assays:
[1] = system: IFNE1 mRNA in HCT116 cells; test: QRT-PCR of IFNE1 transcript level in HCT116 cells treated with CDK and non-CDK inhibitors; type: cell-based, human; conditions: 6 hours, P276-00 250 nM, Flavopiridol 200 nM, Fascaplysin 500 nM, Roscovitine 20 μM, Olomoucine 180 μM, DRB 50 μM, 5-Fluorouracil 800 nM, Camptothecin 30 nM, Etoposide 3 μM, Vinblastin 1.5 μM, Quercitin 750 nM, Paclitaxel 600 nM, Doxorubicin 100 nM
Method: HCT116 cells were treated with various CDK inhibitors [P276-00 (250 nM), Flavopiridol (200 nM), Fascaplysin (500 nM), Roscovitine (20 μM), Olomoucine (180 μM), 5,6-dichloro-1-beta-D-ribofuranosylbenzimidazole (DRB, 50 μM)] and non-CDK inhibitors [5-Fluorouracil (800 nM), Camptothecin (30 nM), Etoposide (3 μM), Vinblastin (1.5 μM), Quercitin (750 nM), Paclitaxel (600 nM), Doxorubicin (100 nM)] for 6 hours. The level of IFNE1 mRNA was estimated using Real Time RT-PCR. Using Actin gene for normalization, relative IFNE1 expression level was plotted as log fold change.
To study if IFNE1 expression is a result of CDK inhibition, HCT116 cells were treated with a variety of CDK and non-CDK inhibitors and IFNE1 transcript level were measured using quantitative QRT-PCR. HCT116 cells were chosen for this assay because IFNE1 level seems to be most regulated in this cell line. The cells were treated with a variety of CDK inhibitors [P276-00 (250 nM), Flavopiridol (200 nM), Fascaplysin (500 nM), Roscovitine (20 μM), Olomoucine (180 μM), 5,6-dichloro-1-beta-D-ribofuranosylbenzimidazole (DRB) (50 μM)] and non-CDK inhibitors [5-Fluorouracil (800 nM), Camptothecin (30 nM), Etoposide (3 μM), Vinblastin (1.5 μM), Quercitin (750 nM), Paclitaxel (600 nM), Doxorubicin (100 nM)] for 6 hours and the IFNE1 transcript level were estimated. All inhibitors were purchased from Sigma and used at IC50 values described in literature.

[2] = system: IFNE1 gene expression in HCT116 xenografts; test: Real Time Quantitative Reverse Transcriptase PCR of IFNE1 in HCT116 xenografts; type: in vivo, SCID mice; conditions: normalized to actin
Method: (§1) Colon carcinoma (HCT-116) cells were injected into severe combined immunodeficient (SCID) mice intraperitoneally. Xenografts were allowed to grow, typically for 7 days until the tumors reached a size of 5×5 mm before therapeutic agent administration. A total of 56 animals were used for the study. Animals that were treated with two consecutive day administrations of the agent/vehicle were considered as the acute treated group. The acute treated group of animals consisted of 8 sham treated, 10 Flavopiridol (2.5 mg/kg) treated, and P276-00 (35 mg/kg) treated mice. A similar group of animals was treated with either vehicle or agent for 6-7 days consecutively and was considered as the chronic treated group, as discussed below. The differences in the concentrations used reflect the differences in the IC50 values of the two therapeutic agents.
(§2) At the end of the acute/chronic treatments, the xenografts were excised from the animals and RNA was prepared using Trizol reagent (Sigma, USA) as per the manufacturer's protocol. Briefly, xenograft tissues were homogenized under liquid nitrogen and resuspended in Trizol ([…] tissue) followed by chloroform extraction. The RNA was precipitated in isopropanol and the pellet was washed using 70% ethanol. RNA samples thus obtained were resuspended in RNase-DNase free water. Quality and quantity of RNA was measured by spectrometry using ND-1000 spectrometer (Nanodrop, Wilmington, Del., USA).
IFNE1 expression in tumor tissues, after exposure to P276-00 or Flavopiridol, was further validated by RTQ-PCR. The primer sequences used for PCR analysis are as follows:
The actin (ACTB) gene is used as control for relative quantification, and the following primer sequences were used for its PCR analysis:
An aliquot of the RNA samples used for the microarray study was also used for Quantitative Real Time Reverse TRasncriptase PCR (QRT-PCR) analysis. […]

[3] = system: IFNE1 mRNA in Calu-1 cells; test: QRT-PCR of IFNE1 level in Calu-1 cells treated with P276-00 or Flavopiridol; type: cell-based, human; conditions: at most time points (4, 8, 12, 24, 48 hours)
Method: (§3) FIGS. 3A, 3B and 3C show expression of IFNE1 in different cancer cell lines treated with P276-00 and Flavopiridol. The different cell lines were treated with the agent for the indicated times and the level of IFNE1 mRNA were estimated using Real Time RT-PCR. Using the Actin gene for normalization, IFNE1 expression level was plotted as log fold change relative to the signal from the control untreated cells.
(§4) The expression of IFNE1 in response to P276-00 or Flavopiridol was also studied in different cancer cell lines such as HCT116, HL-60 (leukemia) and Calu-1. HCT116, Calu-1, H460 and HL-60 cells were obtained from ATCC and were maintained in culture medium with 10% fetal bovine serum. P276-00 and Flavopiridol were synthesized in-house and 10 mM stocks in DMSO were used for the assays. HCT116 (FIG. 3A) cells in culture were treated with P276-00 and Flavopiridol at 200 nM and 250 nM respectively for 6 hours, 12 hours and 24 hours. HL-60 (FIG. 3B) cells were treated with 300 nM of P276-00 and […] of Flavopiridol for 3 hours, 6 hours, 12 hours and 24 hours and Calu-1 (FIG. 3C) cells were treated with 1.2 μM of P276-00 and 450 nM of Flavopiridol for 4 hours, 8 hours, 12 hours, 24 hours and 48 hours. RNA was prepared from the samples and QRT-PCR was performed to estimate level of IFNE1.

[4] = system: IFNE1 gene in HCT116 xenografts; test: Oligonucleotide microarray expression profiling of IFNE1 in HCT116 xenografts treated with P276-00 or Flavopiridol; type: in vivo, SCID mice
Method: as §1, §2
To account for variability in gene expression in the xenografts before agent treatments, RNA samples from the respective control groups were pooled proportionally. Each of the P276/FP acute treated xenograft was, therefore, compared with pooled acute control RNA samples and the same method was adopted for the chronically treated samples. For microarray hybridization, a total of 20 μg of RNA was used for cDNA synthesis, which was indirectly labeled with Cy3 (pooled control) or Cy5 (individual treated xenograft) fluorescent dyes as described (Chinnaiyan AM et. al., Am J. Pathol. 2001 October; 159(4): 1199-209). A 23,290 oligonucleotide array (Illumina, USA) was spotted using the OmniGrid™ Genemachines. The slides were processed by standard procedures and hybridization was performed in the two-channel mode. Post hybridization, the slides were washed and scanned using GeneTAC UC-4 and images obtained were analyzed using the GenePix Pro 5.1. The median of ratios of intensities (Cy5/Cy3) obtained from the two channels was subjected to Cluster analysis and viewed using the Treeview program. Median of ratios above 2 is considered as significant upregulation of the specific gene in the drug treated xenograft and a value below 0.5 is considered as downregulation of the specific gene in the drug treated xenograft.
A total of 16 hybridizations representing 10 acute treatments (FIG. 1A) and 6 chronic treatments (FIG. 1B) were analyzed. Individual hybridizations were numbered according to acute (A) or chronic (C) treatment followed by the animal number and the respective agent used. For example, A20 (P276) identifies acute treated xenograft with P276-00 in the animal numbered 20.
The values represent the log of median of ratio for IFNE1 gene across different xenografts treated with either P276-00 or Flavopiridol. As mentioned before, a ratio value above 1 indicates a two-fold increase in the gene levels. The Cluster analysis identifies upregulation of IFNE1 consistently across both acute (Table 1A) and chronic (Table 1B) treatments of HCT116 xenografts.

[5] = system: IFNE1 mRNA in HL-60 cells; test: QRT-PCR of IFNE1 level in HL-60 cells treated with P276-00 or Flavopiridol; type: cell-based, human; conditions: at most time points (3, 6, 12, 24 hours)
Method: as §3, §4

[6] = system: IFNE1 mRNA in HCT116 cells; test: QRT-PCR of IFNE1 level in HCT116 cells treated with P276-00 or Flavopiridol; type: cell-based, human; conditions: for IFNE1 level relative to control untreated cells: at most time points (6, 12, 24 hours)
Method: as §3, §4

SMILES: O=c1[nH]cc(F)c(=O)[nH]1 [5-Fluorouracil]
- change of IFNE1 mRNA level [1]: do not cause a change

SMILES: CC[C@@]1(O)C(=O)OCc2c1cc1n(c2=O)Cc2cc3ccccc3nc2-1 [Camptothecin]
- change of IFNE1 mRNA level [1]: do not cause a change

SMILES: CN1CC[C@@H](c2c(O)cc(O)c3c(=O)cc(-c4ccccc4Cl)oc23)[C@@H]1CO.Cl [Compound P276-00, (+)-trans-2-(2-Chloro-phenyl)-5,7-dihydroxy-8-(2-hydroxymethyl-1-methyl-pyrrolidin-3-yl)-chromen-4-one hydrochloride]
- xenografts with upregulated IFNE1 level by QRT-PCR ([2]; acute treatment): 3 of the 6
- xenografts with upregulated IFNE1 level by QRT-PCR ([2]; chronic treatment): most of the xenografts tested
- change of IFNE1 mRNA level [1]: upregulation
- IFNE1 level relative to control untreated cells [3]: significant increase
- log of median of ratio for IFNE1 gene ([4]; acute treatment (two consecutive days), xenograft A20, P276-00 35 mg/kg, log base 2 of Cy5/Cy3 vs pooled control): 2.26
- log of median of ratio for IFNE1 gene ([4]; acute treatment, xenograft A2, P276-00 35 mg/kg, log base 2 vs pooled control): 1.107
- log of median of ratio for IFNE1 gene ([4]; acute treatment, xenograft A5, P276-00 35 mg/kg, log base 2 vs pooled control): 1.966
- log of median of ratio for IFNE1 gene ([4]; acute treatment, xenograft A11, P276-00 35 mg/kg, log base 2 vs pooled control): 2.053
- log of median of ratio for IFNE1 gene ([4]; acute treatment, xenograft A23, P276-00 35 mg/kg, log base 2 vs pooled control): 3.252
- log of median of ratio for IFNE1 gene ([4]; chronic treatment (6-7 days consecutively), xenograft C17, P276-00, log base 2 vs pooled control): 0.7715
- log of median of ratio for IFNE1 gene ([4]; chronic treatment, xenograft C11, P276-00, log base 2 vs pooled control): 1.318
- log of median of ratio for IFNE1 gene ([4]; chronic treatment, xenograft C23, P276-00, log base 2 vs pooled control): 1.326
- IFNE1 level relative to control untreated cells [5]: significant increase
- IFNE1 level relative to control untreated cells [6]: significant increase

SMILES: OC[C@H]1O[C@@H](n2cnc3cc(Cl)c(Cl)cc32)[C@H](O)[C@@H]1O [DRB, 5,6-dichloro-1-beta-D-ribofuranosylbenzimidazole]
- change of IFNE1 mRNA level [1]: upregulation

SMILES: COc1cccc2c1C(=O)c1c(O)c3c(c(O)c1C2=O)C[C@@](O)(C(=O)CO)C[C@@H]3O[C@H]1C[C@H](N)[C@H](O)[C@H](C)O1 [Doxorubicin]
- change of IFNE1 mRNA level [1]: do not cause a change

SMILES: COc1cc([C@@H]2c3cc4c(cc3[C@@H](O[C@@H]3O[C@@H]5CO[C@@H](C)O[C@H]5[C@H](O)[C@H]3O)[C@H]3COC(=O)[C@H]23)OCO4)cc(OC)c1O [Etoposide]
- change of IFNE1 mRNA level [1]: do not cause a change

SMILES: O=C1c2ccccc2-[n+]2ccc3c([nH]c4ccccc43)c21 [Fascaplysin]
- change of IFNE1 mRNA level [1]: upregulation

SMILES: CN1CC[C@H](c2c(O)cc(O)c3c(=O)cc(-c4ccccc4Cl)oc23)[C@H](O)C1 [Flavopiridol]
- xenografts with IFNE1 up-regulation by QRT-PCR ([2]; acute or chronic not distinguished): most of the xenografts tested
- change of IFNE1 mRNA level [1]: upregulation
- IFNE1 level relative to control untreated cells [3]: significant increase
- log of median of ratio for IFNE1 gene ([4]; acute treatment, xenograft A3, Flavopiridol 2.5 mg/kg, log base 2 vs pooled control): 2.017
- log of median of ratio for IFNE1 gene ([4]; acute treatment, xenograft A6, Flavopiridol 2.5 mg/kg, log base 2 vs pooled control): 1.121
- log of median of ratio for IFNE1 gene ([4]; acute treatment, xenograft A9, Flavopiridol 2.5 mg/kg, log base 2 vs pooled control): 1.568
- log of median of ratio for IFNE1 gene ([4]; acute treatment, xenograft A15, Flavopiridol 2.5 mg/kg, log base 2 vs pooled control): 1.228
- log of median of ratio for IFNE1 gene ([4]; acute treatment, xenograft A22, Flavopiridol 2.5 mg/kg, log base 2 vs pooled control): 1.17
- log of median of ratio for IFNE1 gene ([4]; chronic treatment, xenograft C6, Flavopiridol, log base 2 vs pooled control): 2.731
- log of median of ratio for IFNE1 gene ([4]; chronic treatment, xenograft C9, Flavopiridol, log base 2 vs pooled control): 1.723
- log of median of ratio for IFNE1 gene ([4]; chronic treatment, xenograft C15, Flavopiridol, log base 2 vs pooled control): 1.595
- IFNE1 level relative to control untreated cells [5]: significant increase
- IFNE1 up-regulation, log fold change relative to control untreated cells ([6]; 12 hours, normalized to Actin): up to 7 log fold changes
- IFNE1 level relative to control untreated cells [6]: significant increase

SMILES: CC(=O)O[C@H]1C(=O)[C@@]2(C)[C@H]([C@H](OC(=O)c3ccccc3)[C@]3(O)C[C@H](OC(=O)[C@H](O)[C@@H](NC(=O)c4ccccc4)c4ccccc4)C(C)=C1C3(C)C)[C@]1(OC(C)=O)CO[C@@H]1C[C@@H]2O [Paclitaxel]
- change of IFNE1 mRNA level [1]: do not cause a change

SMILES: O=c1c(O)c(-c2ccc(O)c(O)c2)oc2cc(O)cc(O)c12 [Quercitin]
- change of IFNE1 mRNA level [1]: do not cause a change

SMILES: CC[C@H](CO)Nc1nc(NCc2ccccc2)c2ncn(C(C)C)c2n1 [Roscovitine]
- change of IFNE1 mRNA level [1]: upregulation; also recorded: potentiated IFNE1 level maximally

SMILES: CC[C@]1(O)C[C@@H]2CN(CCc3c([nH]c4ccccc34)[C@@](C(=O)OC)(c3cc4c(cc3OC)N(C)[C@H]3[C@@](O)(C(=O)OC)[C@H](OC(C)=O)[C@]5(CC)C=CCN6CC[C@]43[C@@H]65)C2)C1 [Vinblastin]
- change of IFNE1 mRNA level [1]: do not cause a change

Source: patent US20110151469A1, “INTERFERON EPSILON (IFNE1) AS A MARKER FOR TARGETED CANCER THERAPY” (PIRAMAL LIFE SCIENCES LIMITED, priority 2008, published 2011)
